Earlier results in patent US20200360292A1, “OIL-SOLUBLE DRUG CONTAINING COMPOSITIONS AND METHODS OF USE THEREOF” (priority 2019, published 2020).

Conditions: inhalation

Question: For CCCCCc1cc(O)c2c(c1)OC(C)(C)[C@@H]1CCC(C)=C[C@@H]21 [THC, Δ9-tetrahydrocannabinol], which “Time to maximum plasma concentration” value is on record?
Answer: The value was “within minutes”.
